“And” between values parts separate entries of the source, which are not always exact repeats. Equal values may be shown once.
Key:
neutrophil elastase = target: T1, neutrophil elastase (Sus scrofa, UniProt P00772); experiment: Elastase assay (SANA substrate); format: biochemical, porcine; settings: Tris-HCl pH 8.0, SANA substrate; read-out: neutrophil elastase inhibition IC50 (converted)
T1 construct: purchased Sigma Chemical Co. (St. Louis, MO, USA)
Description: The elastase analysis was performed according to the spectrophotometric method with oleanolic acid as a reference. The reaction mixture (Tris-HCl buffer (pH 8.0), 1.0 μg/mL porcine pancreatic elastase, and different concentrations of chalcone derivatives was preincubated at room temperature for 15 min. Afterwards, the addition of the substrate—SANA—started the reaction. Product formation changes were analyzed at λ = 410 nm for 20 min every 20 s (Epoch, BioTek Instruments, Santa Clara, CA, USA). The control was composed of Tris-HCl buffer (pH 8.0), an appropriate concentration of the chalcone derivative, and SANA.

AGS cells [1] = experiment: Annexin V and dead cell assay (flow cytometry); format: cell-based, human; settings: 24 h
Description: (§1) To estimate the viability and induction of apoptosis/necrosis in the population of AGS cells treated with compound 5, the Muse Annexin V and a Dead Cell Assay Kit (Merck Millipore, Burlington, MA, USA) were used. The cells were seeded in 12-well plates (1 × 10^5 cells/well) and incubated with the compound at concentrations of 1, 5, and 10 µg/mL. […] After 24 h, the cells were stained with the kit reagents, namely, annexin V and 7-AAD (7-aminoactinomycin), and analyzed by flow cytometry (Muse Cell Analyzer, Merck Millipore, Burlington, MA, USA). The experiments were performed in three independent repeats.

[2] = Annexin V and dead cell assay (flow cytometry); format: cell-based, human; settings: human, AGS cells, 10 µg/mL, read-out: live cells (viability)
Description: as §1

[3] = test system: Salmonella enterica ATCC13076; experiment: MIC determination; format: cell-based; settings: 37 °C, 48 h
Description: (§2) The MIC determinations for Staphylococcus epidermidis ATCC14990, Staphylococcus aureus ATCC6538, Enterococcus faecalis ATCC51299, Klebsiella pneumoniae ATCC13883, Escherichia coli ATCC8739, Salmonella enterica ATCC13076, Helicobacter pylori ATCC43504, Campylobacter jejuni ZMF, Campylobacter coli ZMF, Bacillus cereus PCM 1948,2019 (ATCC11778), and Listeria monocytogenes PCM2191 were performed based on the methodology described by Krauze-Baranowska et al.. The procedure for H. pylori was used in the experiments with Campylobacter strains, and the procedure for B. subtilis was used in the experiments with L. monocytogenes and B. cereus. The tested samples were dissolved in DMSO and diluted with water (concentration of approximately 500 μg/mL). The solutions were diluted geometrically by transferring the mixture/dilution (100 μL) from the first to the twelfth well of the microtiter plate. The final concentrations of samples used for antimicrobial effects ranged from 500 to 0.006 µg/mL. Ampicillin was used as a reference compound in the concentration range of 128 to 0.0625 µg/mL. The tests were incubated at 37 °C for 48 h. The diluent concentration had no effect on the activity of the tested compounds. All experiments were performed in triplicate.

Campylobacter jejuni ZMF = experiment: MIC determination; format: cell-based; settings: 37 °C, 48 h
Description: as §2

[4] = test system: Staphylococcus epidermidis ATCC14990; experiment: MIC determination; format: cell-based; settings: 37 °C, 48 h
Description: as §2

[5] = test system: Escherichia coli ATCC8739; experiment: MIC determination; format: cell-based; settings: 37 °C, 48 h
Description: as §2

[6] = ABTS radical scavenging assay; settings: concentration of 800 µg/mL
Description: The ABTS radical scavenging assay of chalcone derivatives was performed with ascorbic acid as a standard. Different concentrations of samples, dissolved in DMSO, were mixed with 170 μL of ABTS solution (2 mM ABTS diammonium salt and 3.5 mM potassium persulfate), and water was added to a final volume of 300 μL. ABTS solution with DMSO was used as a control. […] ABTS inhibition was calculated according to the following Formula (3):ABTS Inhibition (%) = [(Acontrol − Asample)/Acontrol] × 100%(3)

[7] = test system: gastric adenocarcinoma AGS; experiment: MTT assay, AGS cells; format: cell-based, human
Description: The human gastric adenocarcinoma AGS, cervical cancer HeLa, and acute promyelocytic leukemia HL-60 cells were obtained from the American Type Culture Collection (ATCC, Manassas, VA, USA). Human neonatal fibroblasts were obtained from LGC Standards (Luckenwalde, Germany). The HeLa and AGS lines were cultured in Dulbecco’s modified Eagle’s medium (DMEM) and DMEM/F12 medium, respectively. The HL-60 line was maintained in RPMI-1640 medium. Fibroblasts were cultured in Fibroblast Growth Medium with Supplement Mix. All the media were supplemented with 100 units/mL of penicillin, 100 µg/mL of streptomycin, and 10% (v/v) fetal bovine serum (FBS) (Merck Millipore, Burlington, MA, USA). The cells were incubated at 37 °C and 5% CO2.
To estimate the cytotoxic effect of the five compounds (4–8), MTT (3-(4,5-dimethylthiazol-2-yl)-2,5-diphenyltetrazolium bromide) assay was used. Oxaliplatin was used as a positive control in this test. All the cell lines were seeded in 96-well plates at a density of 5 × 10^3 cells/well and treated for 24 h with the compounds at concentrations of 0.5–40 µg/mL. Oxaliplatin was tested in the range of 20–400 µg/mL (50–1000 µM). After treatment, the cells were incubated with MTT (0.5 mg/mL; Merck Millipore, Burlington, MA, USA) for 3 h. Then, DMSO was used to dissolve formazan crystals, and the absorbance of the formazan solution was measured with a plate reader (Epoch, BioTek Instruments, Santa Clara, CA, USA). All the results (±standard deviation (SD)) were obtained from six repetitions in at least two independent experiments. The data are expressed as IC50 values (µg/mL).

AGS cells [8] = experiment: Cell cycle analysis (propidium iodide); format: cell-based, human; settings: 48 h
Description: The AGS cells were seeded in a 6-well plate (5 × 10^5 cells/well) and incubated with compound 5 at concentrations of 1, 5, and 10 µg/mL for 48 h; oxaliplatin at the concentration of 40 µg/mL; and DMSO (0.2%, v/v). After treatment, the cells were stained with propidium iodide from the Muse Cell Cycle Assay Kit (Merck Millipore, Burlington, MA, USA), and the amount of cells in each phase of the cell cycle was determined using the Muse Cell Analyzer (Merck Millipore, Burlington, MA, USA). The experiment was independently repeated three times.

T1 sequence (P00772 27-266): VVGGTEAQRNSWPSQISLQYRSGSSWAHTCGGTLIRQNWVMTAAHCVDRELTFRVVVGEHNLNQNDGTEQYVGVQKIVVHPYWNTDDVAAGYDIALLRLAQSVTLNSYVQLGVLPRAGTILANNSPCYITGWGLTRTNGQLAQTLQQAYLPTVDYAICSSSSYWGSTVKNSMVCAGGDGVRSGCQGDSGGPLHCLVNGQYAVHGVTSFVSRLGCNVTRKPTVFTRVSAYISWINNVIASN

Q: With `Cc1cc(S(=O)(=O)Nc2ccc(C(=O)/C=C/c3ccc(Br)cc3)cc2)c(Cl)cc1Cl` [Compound 5, (E)-N-{4-[3-(4-Bromophenyl)acryloyl]phenyl}-2,4-Dichloro-5-Methylbenzenesulfonamide] as the compound, how does the IC50 (neutrophil elastase) read?
A: The IC50 was 121 µM.

Q: And the dead cells (AGS cells [1]; 5 µg/mL)?
A: The dead cells was 18.28% ± 1.80%.

Q: And the late apoptotic cells (AGS cells [1]; 5 µg/mL)?
A: The late apoptotic cells was 33.92% ± 3.05%.

Q: What about the dead cells (AGS cells [1]; 10 µg/mL) of the same compound?
A: Its dead cells is 22.16% ± 2.04%.

Q: And the late apoptotic cells (AGS cells [1]; 10 µg/mL)?
A: The late apoptotic cells was 49.90% ± 2.07%.

Q: What about the “live cells (viability)” value (AGS cells [1]; 10 µg/mL) of the same compound?
A: Its value is 26.26% ± 4.03%.

Q: What about the viability at 24 h, 10 µg/mL [2] of the same compound?
A: Its viability at 24 h, 10 µg/mL is 29%.

Q: And the MIC [3]?
A: The MIC was > 500 µg/mL.

Q: And the MIC (Campylobacter jejuni ZMF)?
A: Its MIC is > 500 µg/mL.

Q: What about the MIC [4] of the same compound?
A: The MIC was > 500 µg/mL.

Q: And the MIC [5]?
A: The MIC was > 500 µg/mL.

Q: And the “% of ABTS radical inhibition” value [6]?
A: Its value is 16.01 ± 0.69%.

Q: And the IC50 ([7]; Homo sapiens, AGS, 24 h, MTT, 24 h treatment)?
A: The IC50 was < 1 µg/mL.

Q: And the “selectivity index AGS” value ([7]; SI = IC50 noncancer cells/IC50 cancer cells, in relation to human neonatal fibroblasts)?
A: Its value is 28.75.

Q: What about the “cells in G0/G1 phase” value (AGS cells [8]; 1 µg/mL) of the same compound?
A: The value was 41.4%.

Q: And the “cells in G2/M phase” value (AGS cells [8]; 1 µg/mL)?
A: Its value is 43.0%.

Q: And the “cells in S phase” value (AGS cells [8]; 1 µg/mL)?
A: Its value is 14.6%.

Q: And the “cells in G1 (G0/G1) phase” value (AGS cells [8]; 10 µg/mL)?
A: The value was 34.9% and 34.47% ± 2.87%.

Q: And the “cells in G2/M phase” value (AGS cells [8]; 10 µg/mL)?
A: The value was 23.1% and 21.50% ± 1.50%.

Q: And the “cells in S phase” value (AGS cells [8]; 10 µg/mL)?
A: Its value is 15.5% and 13.78% ± 1.70%.

Q: And the “cells in subG0 phase” value (AGS cells [8]; 10 µg/mL)?
A: The value was 27.1% ± 0.87%.

Source: PMC10778824, “New Chalcone Derivatives Containing 2,4-Dichlorobenzenesulfonamide Moiety with Anticancer and Antioxidant Properties” (International Journal of Molecular Sciences, 2023)
